This data set is described as follows: gradient 5% acetonitrile 3 min, to 50% in 2 min, to 85% in 15 min, held 3 min, 100 µL/min. The settings on record: column: Zorbax Extend-C18 2.1 x 50 mm; eluents: water / acetonitrile, 0.1% formic acid. An outline of the steps: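 The mobile phases were water and acetonitrile, each with 0.1% formic acid, pumped at 100 μL/min through a Zorbax Extend-C18 column (2.1 × 50 mm, 1.8 μm). Pure standards were injected as mixtures of ~100 molecules and detected by a quadrupole time-of-flight mass spectrometer in positive and negative ionization mode. Retention time came from computationally picked adduct peaks, each inspected by hand.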
`O=C(NCc1ccco1)C1CCN(c2cncnc2N2CCCCC2)CC1`: the RP-LC retention time came to 646 s.
Turning to `COCCCN(C(=O)c1ccccc1)C(C)C(=O)c1c(C)[nH]c(C(=O)OC)c1C` (centres undefined), the RP-LC retention time was 736 s.
As to `O=C(CN1C(=O)COc2ccc(C(=O)N3CCN(c4ccc(F)cc4)CC3)cc21)N1CCCC1`, the RP-LC retention time came out at 736 s.
The compound `Cc1nnc2c(NC(=O)Cc3cccc(C(F)(F)F)c3)cccn12` gave an RP-LC retention time of 785 s.
`O=C1NC2(CCN(C(=O)Nc3ccccc3Cl)CC2)Oc2ccccc21` returned an RP-LC retention time of 765 s.
With `Cc1c(C(=O)N2CCC(C)CC2)c(S(=O)(=O)N2CCN(c3ccccn3)CC2)c(C)n1C`, the RP-LC retention time came out at 664 s.
`COc1cccc(-c2nnc(SCc3cc(=O)n4c(C)csc4n3)o2)c1` gave an RP-LC retention time of 840 s.
Regarding `Cc1oc(C(C)C)nc1C(=O)NCc1ccc(C(F)(F)F)cc1`, the RP-LC retention time amounted to 1060 s.
Then `Cc1ccc(NC(=O)C2CCN(S(=O)(=O)c3cn(C(C)C)cn3)CC2)cc1F`, with 823 s; and `Fc1ccccc1-c1nc(-c2cn(-c3ccccc3)nn2)no1`, with 1230 s.
Then `O=C(CN1CCN(C(=O)Nc2ccc(Cl)cc2)CC1=O)N1CCN(C2CCCCC2)CC1`, with 624 s; and `CCC(C)NC(=O)c1cn(-c2ncccc2-c2nc(-c3ccccc3)no2)cn1` (centres undefined), with 858 s; and `CCCNC(=O)N1CCCN(C2=NS(=O)(=O)C(c3ccccc3)=C2C)CC1`, with 735 s.
Then `CCOC(=O)N1CCN(S(=O)(=O)c2c[nH]c(=O)[nH]c2=O)CC1`, with 582 s; and `Cc1cccc(CNC(=O)c2[nH]c3cc(C)sc3c2CN2CCOCC2)c1`, with 724 s; and `CCN(CC)CCNC(=O)CCC(=O)N1CCc2c(c(C(=O)N3CCCC3)nn2C)C1`, with 578 s.
On to `O=C1Nc2ccccc2NC12CCOCC2`, for which the RP-LC retention time is 631 s.
Then `C=CCN1C(=O)COc2ccc(-c3nc(NC(=O)c4ccc(Cl)cc4)sc3C)cc21`, with 1140 s; and `Cc1ccc(S(=O)(=O)N2CC(=O)N(c3ccccc3C)C(C)(C(=O)NC3CCCC3)C2)cc1` (centres undefined), with 991 s.
The compound `COC(=O)C1=CN(c2ccc(N(C)C)cc2)c2cc(F)ccc2S1(=O)=O` showed an RP-LC retention time of 926 s.
`Cc1ccc(-c2cc3c(N4CCC(C(=O)NC5CCCCC5)CC4)nccn3n2)c(C)c1` had an RP-LC retention time of 905 s.
`COC(=O)c1cc(C)nc2c1c(=O)n(Cc1cccc(F)c1)c(=O)n2C` registered an RP-LC retention time of 973 s.
Then `O=S(=O)(c1ccc(C(F)(F)F)cc1)N1CCCC(Cn2cnc3cccnc32)C1` (centres undefined), with 831 s.
Turning to `O=C(Nc1ccccc1F)C1CCN(S(=O)(=O)c2cc(C(=O)N3CCCCCC3)cs2)CC1`, the RP-LC retention time turned out to be 916 s.
The result for `COc1ccc(NC(=O)c2nnc(CCCC(=O)NCCc3c[nH]c4ccc(C)cc34)s2)cc1` reads 992 s; that for `Clc1cccc(-c2nnc(-c3nc(NCc4cccnc4)c4ccccc4n3)o2)c1`, 705 s.
Then `Cc1cc(C(=O)N2CCN(C(=O)C3CC3c3cccs3)CC2)c(C)o1` (centres undefined), with 767 s; and `Cc1ccc(-c2ccc(-n3nc(C)c(S(=O)(=O)NC4CC4)c3C)nn2)cc1`, with 944 s; and `c1ccc(-c2nc(-c3ccncc3)no2)c(OC2CCN(CC3CC3)C2)c1` (centres undefined), with 642 s.
`Fc1cccc(/C=N/N=C/c2cccc(F)c2)c1` gave an RP-LC retention time of 1290 s.
Regarding `Cc1nc(C2CCOCC2)n(C2CCN(S(=O)(=O)c3ccc(F)cc3F)C2)n1` (centres undefined), the RP-LC retention time is 712 s.
As to `Cc1[nH]c2ccccc2c1CC(=O)NCCc1c[nH]c2ccccc12`, the RP-LC retention time worked out at 826 s.
The result for `COc1ccc(-c2noc(Cc3nnc(-c4ccc(OC)cc4)o3)n2)cc1` reads 949 s.
Turning to `O=C(NCC1CCN(C(=O)COc2ccccc2)CC1)Nc1cccc(C(F)(F)F)c1`, the RP-LC retention time worked out at 840 s.
With `CCNC(=O)C1CCCN(S(=O)(=O)c2cc(OC)ccc2OC)C1` (centres undefined), the RP-LC retention time came out at 699 s.
`Oc1ccc(Nc2ccnc3cc(Cl)ccc23)cc1` came in with an RP-LC retention time of 665 s.
Compound `O=C(c1cnccn1)N1CCC(N2C(=O)C(O)C23CCCCC3)CC1` (centres undefined) gave an RP-LC retention time of 590 s.
Then `CC(C)CCN1CCC(N2CCN(S(=O)(=O)c3ccc(C(F)(F)F)cc3)CC2)C1=O` (centres undefined), with 794 s; and `COc1ccc(Cl)cc1NC(=O)CSc1ccc2nnc(-c3cccs3)n2n1`, with 766 s.
For the compound `CNC(=O)C1CCN(S(=O)(=O)Cc2ccccc2)CC1`, the RP-LC retention time amounted to 655 s.
Then `O=C1CCCN1CN(C(=O)c1ccccc1F)c1nc2ccccc2s1`, with 866 s; and `CC(=O)N1CCc2cc(N3CC(C(=O)Nc4ccccc4OC(F)(F)F)CC3=O)ccc21` (centres undefined), with 766 s; and `Cc1cccc(OCC(=O)Nc2ccc3c(c2)Sc2ncccc2C(=O)N3C)c1`, with 856 s.
Then `CCCN(Cc1cccs1)C(=O)c1cc2c(=O)n(CCC)c3ccccc3n2n1`, with 1140 s; and `Cc1ccc2c(Nc3ccc4c(c3)OCCO4)c(C(=O)N3CCCC3)cnc2n1`, with 592 s; and `Cc1nc(-c2csc(S(=O)(=O)N3CCCC(C(=O)Nc4ccc(Cl)cc4)C3)c2)no1` (centres undefined), with 1040 s.
Then `COCCOC1CN(C2CCN(C(=O)c3ccc(C)s3)CC2)C12CCCCC2` (centres undefined), with 656 s; and `COC[C@@H](NC(C)=O)C(=O)NCc1ccccc1`, with 641 s; and `Cc1ccc(NC(=O)CN2CCc3c(c(=O)c4cc(C)ccc4n3C)C2)cc1`, with 649 s.
In turn, `CN1C(=O)C2(CCN(C(=O)c3ccc(C#N)cc3)C2)c2ccccc21` (centres undefined) displayed an RP-LC retention time of 725 s.
The result for `CN(Cc1ccco1)C(=O)c1ccc2ccnc(N3CCN(c4ccc(Cl)cc4)CC3)c2c1` reads 917 s.
For `COc1ccccc1-n1ccn2cc(-c3ccc(F)cc3)nc2c1=O`, the RP-LC retention time was 783 s.
The result for `COc1ccc(-c2noc(C3(NC(=O)c4ccco4)CCCCC3)n2)cc1` reads 1000 s; that for `CCc1noc2nc(C)n(CC(=O)NCc3ccc(OC)cc3)c(=O)c12`, 755 s; that for `CC(C)NC(=O)C1CCN(c2cnn(Cc3ccccc3)c(=O)c2)CC1`, 689 s.
Then `COC(=O)c1ccc(-c2csc(NC(=O)c3c(F)cccc3Cl)n2)cc1`, with 945 s; and `CCOc1ccc(-c2nc(C3CC(=O)N(c4ccc(Cl)cc4)C3)no2)cc1` (centres undefined), with 1130 s; and `Cc1ccc(S(=O)(=O)Nc2ccc(-c3cn4cccc(C)c4n3)cc2)cc1C`, with 625 s.
For `CCCCCNC(=O)CN1c2ccc(F)cc2-c2ccccc2S1(=O)=O`, the RP-LC retention time was 986 s.

These data come from the METLIN SMRT retention time set (Domingo-Almenara et al. 2019).
